Legend:
[1] = tested on: phosphorylated human Tau [pS396] in SHSY5Y cells; test: Inhibition of tau phosphorylation in SHSY5Y cells (Tau [pS396] sandwich ELISA); assay type: cell-based; parameters: key: “NEG” means no tau phosphorylation inhibition was detected at the referred concentration of compound (I); “POS” means that at the referred concentration tau phosphorylation inhibition was detected; conditions: 18 h
Procedure: Human neuroblastoma SHSY5Y cells were seeded in the presence of Minimum Essential Medium/Nutrient Mixture F-12. One day later, cells are treated with samples for 18 h at 37° C. After treatment, cultures are washed with phosphate-buffered saline and lysed for 30 min at 4° C. in extraction buffer (10 mM Tris-HCl, pH 7.4, 100 mM NaCl, 1 mM EDTA, 2 mM Na3VO4, 1% Triton X-100, 10% glycerol, 0.1% SDS, 0.5% Sodium deoxycholate, 1 mM PMSF and a protease inhibitor cocktail (Roche, Cat 1 697 498)).
The quantitative determination of phosphorylated human Tau is made taking aliquots of the cell lysate and using a phosphorylation-specific antibody against Tau [pS396] in a sandwich ELISA (Biosource, Cat KHB7031). Tau phosphorylation is estimated by measuring the absorbance at 450 nm in a microtiter plate reader (Cultek, Anthos 2010).
The effect of the synthesized compound according to example 1 and that of another 6 compounds of formula (I) is determined at different final concentrations, namely 50, 100 and 200 μM. Not all the compounds of formula (I) were tested at all the concentrations. The results are indicated in Table 1 (see below) as “NEG” and “POS”, respectively meaning “negative” and “positive”; “NEG” means no tau phosphorylation inhibition was detected at the referred concentration of compound (I); “POS” means that at the referred concentration tau phosphorylation inhibition was detected.

[2] = target: T1, Recombinant human glycogen synthase kinase 3β (Homo sapiens, UniProt P49841); test: GSK-3β inhibition (radiometric 33P-ATP, GS-2 peptide substrate); assay type: biochemical; conditions: remaining GSK-3 activity
T1 construct: purchased Upstate 14-306
T1 sequence (P49841 whole entry): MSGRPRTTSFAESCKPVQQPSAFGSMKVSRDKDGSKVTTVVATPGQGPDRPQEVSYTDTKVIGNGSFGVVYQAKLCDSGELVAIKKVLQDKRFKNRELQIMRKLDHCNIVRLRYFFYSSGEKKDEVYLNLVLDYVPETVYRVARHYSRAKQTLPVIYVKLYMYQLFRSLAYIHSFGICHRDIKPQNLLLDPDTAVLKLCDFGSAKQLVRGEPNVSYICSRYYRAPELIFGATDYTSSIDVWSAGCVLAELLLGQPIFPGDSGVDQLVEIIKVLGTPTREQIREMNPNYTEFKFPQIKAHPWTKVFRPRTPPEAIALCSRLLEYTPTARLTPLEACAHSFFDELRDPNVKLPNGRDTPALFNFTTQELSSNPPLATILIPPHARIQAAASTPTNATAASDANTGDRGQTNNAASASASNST
Procedure: This assay is based on the protocol detailed by Upstate Cat. 14-306, making some slight modifications.
Recombinant human glycogen synthase kinase 3β is assayed in MOPS 11 mM pH7.4, EDTA 0.2 mM, EGTA 1.25 mM, MgCl2 26.25 mM and sodium orthovanadate 0.25 mM in the presence of 62.5 μM of Phospho-Glycogen Synthase Peptide-2 (GS-2) (TOCRIS, Cat. 1352), 0.5 μCi γ-^33P-ATP and unlabelled ATP (Sigma, A-9187) at a final concentration of 12.5 μM. After incubation for 30 minutes at 30° C., aliquots are spotted onto P81 phosphocellulose papers. Filters are washed four times for at least 10 minutes each with 1% phosphoric acid and counted with scintillation cocktail in a scintillation counter (PerkinElmer, Microbeta 1450). The activity of GSK-3 is tested at concentrations of 25 and 50 μM, in the presence of the compound synthesized according to example 1 and in the presence of another 6 compounds of formula (I). The results obtained are indicated in Table I (see below), in the form of percentage of GSK-3 activity.

[3] = tested on: SH-SY5Y cells; test: Cell survival by LDH release in SH-SY5Y cells; assay type: cell-based
Procedure: In addition to tau phosphorylation assays, quantification of cell death due to potential toxicity of compounds 1 and 3 described above is made by measuring LDH release (Roche, Cat 1 644 793). For the quantitative determination of cell survival, aliquots of the cell lysate are incubated with an equal volume of reaction mixture at room temperature for 20-30 min. The measure of absorbance is made in a microtiter plate reader with 490-492 nm filter (Cultek, Anthos 2010).
For compounds 1 and 3, the cell survival was measured at 24 hours treatment (see Table 2), and for compound 2 was measured at 18 hours treatment (see Table 3), in SH-SY5Y cells. It is generally considered that a compound is considered toxic if less than 80% of the cells survive after treatment with a compound.

Compound | % GSK-3 Activity ([2]; 25 μM compound) [%] | % GSK-3 Activity ([2]; 50 μM compound) [%] | Tau phosphorylation inhibition in cells ([1]; 50 μM compound) | Tau phosphorylation inhibition in cells ([1]; 100 μM compound) | % of cell viability ([3]; 50 μM, 24 hours treatment) [%] | % of cell viability ([3]; 100 μM, 24 hours treatment) [%] | % of cell viability ([3]; 50 μM, 18 hours treatment) [%] | % of cell viability ([3]; 100 μM, 18 hours treatment) [%]
O=C(Cc1ccccn1)Nc1ncc([N+](=O)[O-])s1 [Compound 3] | 9.49 | 4.1 | NEG | POS | 87 ± 6.0 | 85.4 ± 2.7 |  | 
O=C(Cc1cccnc1)Nc1ncc([N+](=O)[O-])s1 [Compound 1, N-(5-Nitro-thiazol-2-yl)-2-pyridin-3-yl-acetamide] | 5.21 | 2.78 | POS | POS | 94.1 ± 1.8 | 86.5 ± 4.7 |  | 
O=C(Cc1cccnc1)Nc1nccs1 [Compound 6] | 22.29 | 50.90 |  |  |  |  |  | 
O=C(CCc1cccnc1)Nc1ncc([N+](=O)[O-])s1 [Compound 2] | 8.3 | 5.36 | POS | POS |  |  | 95.7 ± 4.2 | 93.7 ± 7.1
O=C(Cc1cccnc1)Nc1ncc(Cl)s1 [Compound 4] | 5.6 | 13.8 | NEG | POS |  |  |  | 

Second part, led by results:

% GSK-3 Activity ([2]; 25 μM compound) [%] | % GSK-3 Activity ([2]; 50 μM compound) [%] | Compound | Tau phosphorylation inhibition in cells ([1]; 50 μM compound) | Tau phosphorylation inhibition in cells ([1]; 100 μM compound) | % of cell viability ([3]; 50 μM, 24 hours treatment) [%] | % of cell viability ([3]; 100 μM, 24 hours treatment) [%] | % of cell viability ([3]; 50 μM, 18 hours treatment) [%] | % of cell viability ([3]; 100 μM, 18 hours treatment) [%]
13.73 | 8.05 | O=C(Cc1ccccc1)Nc1ncc([N+](=O)[O-])s1 [Compound 7] | POS | POS |  |  |  | 
76.72 | 43.78 | O=C(Nc1ncc([N+](=O)[O-])s1)c1ccccn1 [Compound 5] |  |  |  |  |  | 
